Patent US20110160216A1, “Thymidylate Synthase Haplotype is Associated with Tumor Recurrence in Stage II and Stage III Colon Cancer Patients” (UNIVERSITY OF SOUTHEM CALIFORNIA, priority 2008, published 2011)
Marks after values point to notes of the source that are not given here.

Test system: locally advanced (Stage II/III) colon cancer
Test: Retrospective study of time to tumor recurrence (TTR) after 5-FU-based adjuvant chemotherapy, by regimen and by TS/MTHFR genotype
Format: in vivo, human
Experimental: One hundred and ninety-seven (n=197) with locally advanced colon cancer who were treated with 5-FU-based adjuvant chemotherapy [bolus 5-FU: n=30, (15%); infusimal 5-FU: […], (85%)] either at the University of Southern California/Norris Comprehensive Cancer Center (USC/NCCC) or at the Los Angeles County/University of Southern California Medical Center (LAC/USCMC), between 1987 and 2007, were eligible for the present study. This study was conducted at the USC/NCCC and approved by the Institutional Review Board of the University of Southern California for Medical Sciences. Patient data were collected retrospectively through chart review. Informed consent was signed by all patients involved in the study.
Whole blood was collected and genomic DNA was extracted using the QIAamp kit (Qiagen, CA, USA). Samples were tested using polymerase chain reaction restriction fragment length polymorphism (PCR-RFLP) technique. Briefly, forward and reverse primers were used for PCR amplification (see Table 7), PCR products were digested by restriction enzymes (New England Biolab, Massachusetts, USA) and alleles were separated using a 4% NuSieve ethidium bromide stained agarose gel. TS and MTHFR polymorphisms were tested by PCR, followed by allele-specific restriction enzyme digestion method, as previously described (Mandola, M. V. et al. (2003) Cancer Res 63:2898-904; Mandola, M. V. et al. (2004) Pharmacogenetics 14:319-27; Markan, S. et al. (2007) Mol Cell Biochem 302:125-31; Stern, L. L. et al. (2000) Cancer Epidemiol Biomarkers Prev 9:849-53).
The primary endpoint in this study was time to tumor recurrence (TTR) in Stage II/III colon cancer patients, which was defined as the time from the date of diagnosis of Stage II/III colon cancer to the date of first recurrence, […], or until last contact if the patient was free of any tumor recurrence at the time of last contact. If a patient had not recurred, then TTR was censored at the time of death or at the last follow-up. The associations of time to tumor recurrence with patient's clinico-pathologic characteristics (age, sex, race, Stage, tumor grade, T-stage, N-stage and type of adjuvant chemotherapy) were assessed using univariate survival analyses (log-rank test).
Polymorphisms of TS and MTHFR were coded as categorical variables according to their genotypes. The associations between TS and MTHFR polymorphisms and time to recurrence were examined using Kaplan-Meier curves and log-rank test. The distributions of polymorphisms across demographic characteristics were examined using Fisher's exact test. In the univariate survival analysis, the Pike estimate of relative risk (RR) and its associated 95% confidence interval (95% CI) was based on the log-rank test.

[1] = patients receiving 5-FU only, MTHFR A + 1298C A/A
[2] = patients receiving 5-FU only, MTHFR A + 1298C A/C
[3] = patients receiving 5-FU only, MTHFR A + 1298C C/C
[4] = patients receiving 5-FU only, MTHFR C + 677T C/C
[5] = patients receiving 5-FU only, MTHFR C + 677T C/T
[6] = patients receiving 5-FU only, MTHFR C + 677T T/T
[7] = patients receiving 5-FU only, TS-3′UTR +6b/−6bp
[8] = patients receiving 5-FU only, TS-3′UTR +6bp/+6bP
[9] = patients receiving 5-FU only, TS-3′UTR −6bp/−6bp
[10] = patients receiving 5-FU only, TS-5′UTR 2R/2R
[11] = patients receiving 5-FU only, TS-5′UTR 2R/3R
[12] = patients receiving 5-FU only, TS-5′UTR 3R/36
[13] = patients receiving 5-FU only, TS-5′UTR/GC 2R/2R
[14] = patients receiving 5-FU only, TS-5′UTR/GC 2R/3(G)
[15] = patients receiving 5-FU only, TS-5′UTR/GC 2R/3R(C)
[16] = patients receiving 5-FU only, TS-5′UTR/GC 3R(C)/3R(C)
[17] = patients receiving 5-FU only, TS-5′UTR/GC 3R(G)/3R(C)
[18] = patients receiving 5-FU only, TS-5′UTR/GC 3R(G)/3R(G)

O=c1[nH]cc(F)c(=O)[nH]1 [5-FU, 5-Fluorouracil]
Median time to recurrence (TTR) years (95% CI) (all patients grouped by adjuvant therapy): 6.6 years
Probablility ± SE of 3-year recurrence (all patients grouped by adjuvant therapy, Greenwood SE): 0.35 ± 0.04
Median time to recurrence (TTR) years (95% CI) [1]: > 16.8^b years
Probability ± SE of 3-year recurrence [1]: 0.31 ± 0.06
Median time to recurrence (TTR) years (95% CI) [2]: 5.9 years
Probability ± SE of 3-year recurrence [2]: 0.35 ± 0.08
Relative risk (patients receiving 5-FU only, MTHFR A + 1298C A/C vs A/A (Reference)): 1.33
Median time to recurrence (TTR) years (95% CI) [3]: 6.6 years
Probability ± SE of 3-year recurrence [3]: 0.40 ± 0.22
Relative risk (patients receiving 5-FU only, MTHFR A + 1298C C/C vs A/A (Reference)): 1.50
Median time to recurrence (TTR) years (95% CI) [4]: 6.6 years
Probability ± SE of 3-year recurrence [4]: 0.26 ± 0.07
Median time to recurrence (TTR) years (95% CI) [5]: 5.4 years
Probability ± SE of 3-year recurrence [5]: 0.41 ± 0.07
Relative risk (patients receiving 5-FU only, MTHFR C + 677T C/T vs C/C (Reference)): 1.30
Median time to recurrence (TTR) years (95% CI) [6]: > 7.4^b years
Probability ± SE of 3-year recurrence [6]: 0.21 ± 0.09
Relative risk (patients receiving 5-FU only, MTHFR C + 677T T/T vs C/C (Reference)): 0.55
Median time to recurrence (TTR) years (95% CI) [7]: 5.7 years
Probability ± SE of 3-year recurrence [7]: 0.34 ± 0.07
Relative risk (patients receiving 5-FU only, TS-3′UTR +6b/−6bp vs +6bp/+6bP (Reference)): 1.33
Median time to recurrence (TTR) years (95% CI) [8]: > 16.8^b years
Probability ± SE of 3-year recurrence [8]: 0.28 ± 0.06
Median time to recurrence (TTR) years (95% CI) [9]: > 7.7^b years
Probability ± SE of 3-year recurrence [9]: 0.43 ± 0.12
Relative risk (patients receiving 5-FU only, TS-3′UTR −6bp/−6bp vs +6bp/+6bP (Reference)): 1.36
Median time to recurrence (TTR) years (95% CI) [10]: > 16.8^b years
Probability ± SE of 3-year recurrence [10]: 0.20 ± 0.08
Median time to recurrence (TTR) years (95% CI) [11]: 4.8 years
Probability ± SE of 3-year recurrence [11]: 0.42 ± 0.07
Relative risk (patients receiving 5-FU only, TS-5′UTR 2R/3R vs 2R/2R (Reference)): 1.94
Median time to recurrence (TTR) years (95% CI) [12]: 6.6 years
Probability ± SE of 3-year recurrence [12]: 0.29 ± 0.08
Relative risk (patients receiving 5-FU only, TS-5′UTR 3R/36 vs 2R/2R (Reference)): 1.43
Median time to recurrence (TTR) years (95% CI) [13]: > 16.8^b years
Probability ± SE of 3-year recurrence [13]: 0.20 ± 0.08
Median time to recurrence (TTR) years (95% CI) [14]: 4.8 years
Probability ± SE of 3-year recurrence [14]: 0.44 ± 0.10
Relative risk (patients receiving 5-FU only, TS-5′UTR/GC 2R/3(G) vs 2R/2R (Reference)): 1.81
Median time to recurrence (TTR) years (95% CI) [15]: 5.9 years
Probability ± SE of 3-year recurrence [15]: 0.38 ± 0.10
Relative risk (patients receiving 5-FU only, TS-5′UTR/GC 2R/3R(C) vs 2R/2R (Reference)): 1.79
Median time to recurrence (TTR) years (95% CI) [16]: > 13.3^b years
Probability ± SE of 3-year recurrence [16]: 0.17 ± 0.11
Relative risk (patients receiving 5-FU only, TS-5′UTR/GC 3R(C)/3R(C) vs 2R/2R (Reference)): 0.46
Median time to recurrence (TTR) years (95% CI) [17]: 5.7 years
Probability ± SE of 3-year recurrence [17]: 0.24 ± 0.12
Relative risk (patients receiving 5-FU only, TS-5′UTR/GC 3R(G)/3R(C) vs 2R/2R (Reference)): 1.44
Median time to recurrence (TTR) years (95% CI) [18]: 1.4 years
Probability ± SE of 3-year recurrence [18]: 0.61 ± 0.17
Relative risk (patients receiving 5-FU only, TS-5′UTR/GC 3R(G)/3R(G) vs 2R/2R (Reference)): 4.74
